Patent US20100311770A1, “COMPOUND COMBINATIONS FOR INHIBITING CELL DIVISION AND METHODS FOR THEIR IDENTIFICATION AND USE” (President and Fellows of Harvard College, priority 2005, published 2010)
pIC50: −log10 of the molar value. ≈ marks a conversion by molar mass, not a printed value. Entries after “also recorded” stand apart in the source; their conditions may differ.

Columns and labels:
[1] = system: E. coli DRC39 (ΔacrAB::kan); type: cell-based; details: for MIC: E. coli DRC39 (ΔacrAB::kan), MIC99
[2] = system: E. coli strain DRC39; assay: combination anti-bacterial treatment at sub-MIC concentrations, cell growth by turbidity or OD600; type: cell-based; details: for amount of growth relative to absence of compound / growth inhibition: single compound
Experimental: Cell growth was assessed by visual inspection of cells incubated in culture tubes in this experiment and in the second, third, and fourth experiments described in this Example. In the fifth experiment growth was measured by reading optical density (OD600) using a multiwell plate reader. Cells were inoculated at a low concentration (1-2×10^5 cells/ml), such that the medium appeared clear.

[3] = biological target: M. tuberculosis FtzZ (FtsZMt) GTPase (Mycobacterium tuberculosis, UniProt P9WN95); assay: malachite green-phosphomolybdate assay of FtsZ GTPase activity; type: biochemical; details: 5 min preincubation at 30° C., 1 mM GTP; average of three determinations
Chain of M. tuberculosis FtzZ (FtsZMt) GTPase (P9WN95 whole entry): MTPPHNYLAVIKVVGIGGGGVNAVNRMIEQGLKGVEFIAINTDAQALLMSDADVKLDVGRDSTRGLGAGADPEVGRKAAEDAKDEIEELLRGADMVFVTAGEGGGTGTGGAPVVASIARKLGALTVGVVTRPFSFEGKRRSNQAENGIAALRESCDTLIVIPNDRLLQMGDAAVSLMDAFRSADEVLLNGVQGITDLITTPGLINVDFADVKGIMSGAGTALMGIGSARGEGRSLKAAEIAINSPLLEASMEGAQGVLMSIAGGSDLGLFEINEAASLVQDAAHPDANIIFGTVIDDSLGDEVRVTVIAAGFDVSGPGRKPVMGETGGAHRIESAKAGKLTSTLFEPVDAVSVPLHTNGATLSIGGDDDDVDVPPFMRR

[4] = biological target: E. coli FtsZ (FtsZEc) GTPase (Escherichia coli, UniProt P0A9A6); details: read-out: IC50 FtsZEc GTPase; 5 min preincubation at 30° C., 1 mM GTP; average of three determinations
Chain of E. coli FtsZ (FtsZEc) GTPase (P0A9A6 whole entry): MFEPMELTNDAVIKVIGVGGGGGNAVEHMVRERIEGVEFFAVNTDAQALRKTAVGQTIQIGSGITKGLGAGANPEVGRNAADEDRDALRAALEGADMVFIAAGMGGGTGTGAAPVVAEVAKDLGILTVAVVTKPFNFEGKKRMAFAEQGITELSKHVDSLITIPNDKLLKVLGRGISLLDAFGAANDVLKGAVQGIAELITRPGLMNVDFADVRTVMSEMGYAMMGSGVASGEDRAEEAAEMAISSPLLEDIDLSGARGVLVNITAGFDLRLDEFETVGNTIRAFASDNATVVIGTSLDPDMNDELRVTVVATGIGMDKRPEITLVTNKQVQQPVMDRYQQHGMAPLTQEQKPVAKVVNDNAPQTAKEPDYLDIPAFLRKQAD
Experimental: FtsZ was preincubated with varying concentrations of compounds or with 3% DMSO in buffer E for 5 min at 30° C., before adding 1 mM GTP to the reactions. Reaction kinetics were followed by measuring inorganic phosphate released upon GTP hydrolysis. The IC50 values were extrapolated from log dose-response curves and are averages from three independent determinations.

[5] = system: Vibrio cholerae; assay: MIC, standard broth dilution
[6] = system: E. coli MC1000 (wild-type); assay: MIC, standard broth dilution; details: MIC99
[7] = system: Clostridium perfringens; type: cell-based
[8] = system: FtsZ ring assembly in E. coli DRC39 cells; type: cell-based
[9] = system: E. coli DRC40/pBR-ftsZ+; type: cell-based
[10] = system: Bacillus subtilis; assay: MIC / killing, broth culture
[11] = system: E. coli DRC40 (DRC39 ftsZ84); assay: MIC / growth and phenotype, broth culture; type: cell-based
[12] = system: E. coli DRC42 (DRC39 recA::cat); assay: MIC, standard broth dilution
[13] = system: Staphylococcus aureus; assay: MIC, standard broth dilution
[14] = system: gram-negative and gram-positive bacteria; assay: MIC against a variety of bacteria (FIG. 19); type: cell-based
Experimental: FIG. 19 is a table illustrating the minimum inhibitory concentrations of FtsZ GTPase inhibitory compounds identified in vitro. The compounds were tested against a variety of gram-negative and gram-positive bacteria.
The minimum inhibitory concentrations for some of the identified compounds against various bacterial species and strains were evaluated and results are shown herein (see, e.g., FIG. 19 for MIC values of compounds identified using in vitro assays, and see Table 3 for MIC values for compound 26E-10).

[15] = C. perfringens, 80 μM, anaerobic conditions

In the case of `CCN1C(=Cc2ccc3c4ccccc4ccc3[n+]2CC)C=Cc2ccccc21.Cc1ccc(S(=O)(=O)[O-])cc1` [7N-12], the MIC [1] was 1.25 µM, the “amount of growth relative to absence of compound” value ([2]; 0.3 μM) was 98% and the growth inhibition ([2]; 0.3 μM) was 2%.
In the case of `CCN(CC)CCNc1nc(C=Cc2ccc(Cl)cc2)nc2cc3ccccc3cc12` [16L-09], the MIC [1] was 10 µM (≈ 4.31 µg/mL), the pIC50 [3] was 4.30 and the “reduction in MIC when administered in combination” value ([2]; in combination with 26E-10 at sub-MIC concentrations) was 4 fold. The pIC50 [4] was 4.82.
In the case of `CC[n+]1ccc(/C=C/N(C)c2ccccc2)c2ccccc21.[I-]` [26E-10], the MIC [5] was 40 µM, the “cell morphology and density” value ([1]; DRC39, 5 μM compound, 30° C.) was “mixture of filaments of varying lengths and short cells present at a low density” and the “phenotype at MIC” value ([1]; E. coli DRC39) was “filaments”. The MIC [1] was 10 µM, the MIC [6] was >40 µM and the “effect on cell growth” value [7, 15] was “without any overt effect on cell growth”. The phenotype [7, 15] was “filamentation phenotype; also recorded: filaments”, the MIC ([7]; Clostridium perfringens) was > 80 µM and the “DNA replication / chromosome segregation (DAPI staining of nucleoids)” value ([8]; 10 μM) was “does not affect DNA replication or chromosome segregation”. The “Z-rings in elongated cells” value ([8]; 10 μM (MIC), within 60 min) was “markedly reduced in number and diminished in intensity”, the Z-rings ([8]; 10 μM, after 90 min treatment) was “most of the cells were devoid of distinct Z-rings” and the “cell length (filamentation)” value ([8]; 10 μM, within 60 min of treatment) was ~4 ×. The “cell density and filamentation” value ([9]; DRC40/pBR-ftsZ+, 5 μM compound, versus DRC40/pBR322) was “higher cell density and less pronounced filamentation”, the MIC ([9]; DRC40 with wild-type ftsZ in trans (pBR-ftsZ+)) was 10 µM and the “killing of B. subtilis” value [10] was “efficiently killed”. The MIC ([10]; Bacillus subtilis) was 40 µM, the “amount of growth relative to absence of compound” value ([2]; 5 μM) was 41% and the growth inhibition ([2]; 5 μM) was 59%. For the same compound, the growth ([11]; DRC40/pBR322, 5 μM compound, 30° C.) was “absolutely no growth”, the “phenotype at MIC” value ([11]; E. coli DRC40) was “filaments” and the MIC ([11]; E. coli DRC40 (ftsZ84), 30° C., MIC99) was 2.5 µM. For the same compound, the MIC [12] was 10 µM and the MIC [13] was 20 µM.
In the case of `Oc1ccc(Cl)cc1Cc1cc(Cl)cc(Cc2cc(Cl)ccc2O)c1O` [27D-12], the MIC [1] was 20 µM (≈ 8.19 µg/mL), the pIC50 [3] was 4.26 and the “activity against gram negative bacteria” value [14] was “kills gram negative species”. The “activity against gram positive bacteria” value [14] was “effective against gram positive bacteria at very low concentrations” and the pIC50 [4] was 5.30.
For `Nc1c(C=Cc2cc3cc(C4=NCCN4)ccc3o2)[nH]c2cc(C3=NCCN3)ccc12` [58P-18], the MIC [1] was 80 µM (≈ 32.8 µg/mL), the Z-ring assembly ([8]; 40 μM) was “none of the treated cells appear to contain a medial FtsZ ring” and the “time until cells start elongating” value ([8]; 40 μM) was ≤ 60 min. It also gave a pIC50 [3] of 4.52 and a pIC50 [4] of 5.40.
